The assay has as its system CEM cells HIV-1 protection, formazan growth assay. In words: NCI AIDS Antiviral Assay. Conditions: for pIC50: measured here: growth of uninfected CEM cells. In a few lines:
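Soluble formazan readout of cell growth; CEM cells ± HIV-1; 5 drug concs. ≥50% protection → retest; ≥50% again = moderately active; reproducible 100% = confirmed active.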

The source of these data is PubChem BioAssay AID179 (DTP/NCI, 2004).

pEC50, pIC50: −log10 of the molar value. The source made the active and inactive calls.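 How the source made its calls: active means compounds giving half or more protection of infected cells from virus-caused growth loss, again on retest; inactive means the rest.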

One may read the pEC50 as the EC50 on a negative log10 scale, so that one unit is a factor of ten. A word on the pIC50: it is the IC50 on a negative log10 scale, so that one unit is a factor of ten. For the compound `C=CCCCN1C(=O)C2C3c4ccccc4C(C=O)(c4ccccc43)C2C1=O` (configuration not stated), the pEC50 is less than 3.70 and the negative-log IC50 (pIC50) was 5.14. Consider `CCC(=O)C(C(C)/C=C/CCSc1ccccc1)C(O)CCCCCC(=O)OC` (configuration not stated), for which the pEC50 was less than 3.70 and the negative logarithm of the IC50 (pIC50) was 4.44. For `CN(C)CC1CCC/C(=C\c2ccc(N(C)C)cc2)C1=O` (configuration not stated), the pEC50 was less than 3.70 and the negative-log IC50 (pIC50) was 5.65.

With `CC1(C)CNC[C@](C)(OCCO)C(=O)[N-]C(C)(C)CNC[C@@](C)(OCCO)C(=O)[N-]1.[Ni+2]`, the pEC50 was less than 3.70 and the pIC50 is 3.74. Consider `CCNC(=O)c1ccccc1S(C)=O` (configuration not stated), for which the pEC50 is less than 3.70 and the pIC50 was less than 3.70.

As to `NNc1ccc2cc(S(=O)(=O)O)cc(S(=O)(=O)O)c2c1`, the pEC50 is less than 3.13 and the pIC50 was 3.48. `O=C(O)c1nc2ccc(C(F)(F)F)cc2[nH]c1=O`: the pEC50 is less than 3.70 and the pIC50 is less than 3.70.

With `O=C(/C(=C/c1ccc(F)cc1)c1ccccc1)c1ccccc1`, the pEC50 was less than 5.18 and the negative-log IC50 (pIC50) is less than 5.18.

As to `O=S(=O)(Sc1ccccc1)C(c1ccccc1)c1ccccc1`, the pEC50 is less than 3.88 and the pIC50 was 4.67. As to `COc1cccc2c1C(=O)c1c(O)c3c(c(O)c1C2=O)C[C@@](O)(C(C)O)C[C@@H]3OC1CC(N)C(O)C(C)O1` (some centres not stated), the result was inactive.

For `c1ccc2c(c1)N=C(c1ccc3ccccc3c1)CC(c1cccc3ccccc13)S2` (configuration not stated), the pEC50 was less than 5.60 and the negative-log IC50 (pIC50) is less than 5.60. With `COc1cc(CC2C(=O)NC(=O)NC2=O)ccc1OCc1ccccc1`, the result was inactive. With `CCOC(=O)C1Cc2ccc(OC)cc2C2=CC(=O)CCC21` (configuration not stated), the pEC50 is less than 3.78 and the pIC50 is less than 3.78. As to `CC(=O)Oc1ccc(-c2oc3c([C@H]4C=C(C)CC(c5ccc(OC(C)=O)cc5OC(C)=O)[C@@H]4C(=O)c4ccc(OC(C)=O)c(CC=C(C)C)c4O)c(OC(C)=O)cc(O)c3c(=O)c2CC=C(C)C)c(OC(C)=O)c1` (some centres not stated), the pEC50 was less than 5.29 and the negative-log IC50 (pIC50) was less than 5.29. As for `COc1ccc2c(c1)CCc1[nH]c3ccccc3c1CCCC2`, the pEC50 is less than 4.21 and the pIC50 was 4.24. As to `O=C1C2C3CC4C5C3C1C5C1(SCCS1)C42` (configuration not stated), the result was inactive. In the case of `Cc1ccc(C(CCO)CCO)nc1`, the pEC50 was less than 3.70 and the negative-log IC50 (pIC50) is less than 3.70. `CCN1C(=O)c2cc(=O)[nH]c(O)c2C1C` (configuration not stated): the pEC50 was less than 3.33 and the negative-log IC50 (pIC50) was less than 3.33. In the case of `Cn1c(=O)n(CC2CS2)c2ccccc21` (configuration not stated), the pEC50 was less than 2.95 and the pIC50 was 4.61.

Regarding `N#C/C=C/c1cccc(Cl)c1`, the pEC50 is less than 4.22 and the negative logarithm of the IC50 (pIC50) was less than 4.22. Regarding `COc1ccc(C2NC3=C(CCCC3)C3(C#N)C(=O)N=C(N)C23C#N)cc1` (configuration not stated), the pEC50 is less than 3.70 and the negative logarithm of the IC50 (pIC50) was 3.97. For `CCOC(=O)NC(Nc1ccc(Cl)cn1)(C(F)(F)F)C(F)(F)F`, the pEC50 was less than 3.70 and the pIC50 was less than 3.70. With `CCOC(=O)/C(=C/c1cccc(OC)c1)N(CC)CC`, the pEC50 is less than 3.74 and the negative logarithm of the IC50 (pIC50) was less than 3.74. Turning to `N#CNC(N)=Nc1ccc(Cl)cc1`, the outcome was inactive. `O/N=C1/C(=C/c2ccc(OCc3ccccc3)cc2)CCCC1C(NO)c1ccc(OCc2ccccc2)cc1` (configuration not stated): the pEC50 is less than 5.15 and the pIC50 is less than 5.15. Consider `O=S(=O)(c1ccc(F)cc1)c1ccc(F)cc1`, for which the pEC50 is less than 3.70 and the negative-log IC50 (pIC50) was less than 3.70. With `COc1ccc2nc(-c3ccccc3)c(=O)[nH]c2c1`, the pEC50 is less than 3.70 and the pIC50 was 4.34. As to `Cc1ccc(Sc2cc([N+](=O)[O-])cc(Sc3ccc(C)cc3)c2Sc2ccc(C)cc2)cc1`, the pEC50 is less than 5.43 and the negative-log IC50 (pIC50) was less than 5.43. `BrCCOc1ccc(-c2c3ccccc3c(-c3ccc(OCCBr)cc3)c3ccccc23)cc1`: the pEC50 was less than 4.00 and the pIC50 is less than 4.00. Take `CC(C)(CO)NCC(O)CS(=O)(=O)O` (configuration not stated): the pEC50 was less than 3.70 and the negative logarithm of the IC50 (pIC50) is less than 3.70. For `Cc1ccc(SS(=O)(=O)c2ccc([N+](=O)[O-])cc2)cc1`, the pEC50 was less than 4.22 and the pIC50 was 4.39. As to `O=C(OCc1ccccc1)N1N=NC2C3CC(OCc4ccccc4)(OCc4ccccc4)C(O3)C21` (configuration not stated), the pEC50 is less than 4.97 and the pIC50 is less than 4.97. Regarding `CCN(CC)CC(=O)Nc1ccc(Cl)cc1C(O)c1ccccc1` (configuration not stated), the pEC50 is less than 3.70 and the negative-log IC50 (pIC50) was 3.92.

For the compound `COc1cc(CC2c3cc(OC)c(OC)cc3CC[N+]2(C)C)c(Oc2cc(CC3c4cc(OC)c(OC)cc4CC[N+]3(C)C)ccc2OC)cc1OC` (configuration not stated), the outcome was inactive. For `COc1cc(COC(=O)N(C)[C@@H](Cc2ccccc2)C(=O)O)c([N+](=O)[O-])cc1OC`, the pEC50 is less than 3.22 and the negative-log IC50 (pIC50) was 3.52. On to `CS(=O)(=O)c1[nH]nc2[nH]c(=O)[nH]c(=O)c12`, for which the pEC50 was less than 3.70 and the negative-log IC50 (pIC50) was less than 3.70. In the case of `CCOP(=O)(OCC)c1ccc(=O)[nH]c1-c1cccs1`, the pEC50 is less than 3.70 and the negative logarithm of the IC50 (pIC50) was less than 3.70.

As for `CC1CC(C)(C)S(=O)(=O)O1` (configuration not stated), the pEC50 is less than 3.70 and the pIC50 is less than 3.70. As for `CO[C@@]12[C@@H]3N[C@@H]3CN1C1=C(C(=O)C(N3CCCC3)=C(C)C1=O)[C@@H]2COC(N)=O`, the pEC50 was less than 3.70 and the pIC50 is 6.20. For the compound `CSc1nc(=S)[nH]c2n[nH]c(C)c12`, the pEC50 was less than 3.70 and the negative logarithm of the IC50 (pIC50) was less than 3.70. On to `CC1CN=C(NS(=O)(=O)c2cc(C(=O)Nc3ccccc3)c(Cl)cc2S)NN1` (configuration not stated), for which the pEC50 was less than 3.70 and the negative logarithm of the IC50 (pIC50) is 4.72. `COP(=O)(OC)/C(=C\C1=CN(C(c2ccccc2)(c2ccccc2)c2ccccc2)CN1)NC=O`: the pEC50 is less than 3.70 and the pIC50 is 4.67. For `C/C(=C\c1ccccc1)C(O)C(=O)c1nc2ccc(Cl)cc2[nH]c1=O` (configuration not stated), in that order: less than 3.15 and 4.47.

For `CCn1c(=O)c2c3ccc(OC)cc3[nH]c2c2ccc(OC)cc21`, the pEC50 was less than 3.70 and the negative-log IC50 (pIC50) was 4.25. For the compound `O=C1Oc2ccccc2CC1C(=O)c1ccc([N+](=O)[O-])cc1` (configuration not stated), the pEC50 is less than 4.20 and the pIC50 is 4.28. For the compound `CC(=O)OCCC(O[Si](c1ccccc1)(c1ccccc1)C(C)(C)C)C(C)(C)O` (configuration not stated), the result was inactive. Consider `O=c1c(SCc2ccccc2)c(SCc2ccccc2)cnn1-c1ccccc1`, for which the pEC50 was less than 4.62. `Cc1ccc(NC(=O)c2cc(S(=O)(=O)N3CCNNC3=O)c(S)cc2Cl)cc1`: the pEC50 was 4.52 and the pIC50 is 3.71. `COC(=O)C(Cc1ccccc1)NC(=O)Cn1ccnc1[N+](=O)[O-]` (configuration not stated): the pEC50 was less than 3.12 and the pIC50 is 3.88. Regarding `COc1ccc(CC2COC(=O)[C@@H]2Cc2cccc(O)c2)cc1OC` (some centres not stated), the pEC50 was less than 3.70 and the pIC50 was 3.81. `CC(C)(C)C1=CC(=NC(=O)c2cc([N+](=O)[O-])cc([N+](=O)[O-])c2)C=C(C(C)(C)C)C1=O`: the pEC50 is less than 5.22 and the negative-log IC50 (pIC50) is less than 5.22. Turning to `CC(=O)N(C(C)=O)n1c(Cc2ccc(Cl)cc2)nn(C(C)=O)c1=O`, the pEC50 is less than 3.70 and the pIC50 is less than 3.70.
